Experimental findings from ChEMBL document CHEMBL4334440, “Osteoclastogenesis Regulation Metabolites from the Coral-Associated Fungus Pseudallescheria boydii TW-1024-3” (J Nat Prod, 2019) are described below.

Calls of active or inactive are those of the source. The calls are words filed in the database; no cut-off is given here.

The test system of data set [1] is BMDM. As to the kind of experiment: Cytotoxicity against C57BL/6J mouse Bone marrow macrophage cells assessed as reduction in cell viability at < 10 uM after 48 hrs by CCK-8 assay. The format is cell-based. (Tetrazolium assays rely on reduction of a dye to a coloured formazan, in cell work by metabolically active cells.)
Data set [2] has as its system BMDM. As to the kind of experiment: Effect on RANKL/M-CSF-induced osteoclastogenesis in C57BL/6J mouse Bone marrow macrophage cells assessed as increase in number of osteoclasts at 0.1 uM compound for every 2 days and measured after 7 days by TRAP staining based light microscopic method. The data set is classed as functional, cell-based.
The test system of data set [3] is BMDM. As to the kind of experiment: Effect on RANKL/M-CSF-induced osteoclastogenesis in C57BL/6J mouse Bone marrow macrophage cells assessed as increase in number of osteoclasts at 0.1 to 1 uM compound for every 2 days and measured after 7 days by TRAP staining based light microscopic method. The format is functional, cell-based.
Data set [4] deals with BMDM. As to the kind of experiment: Effect on RANKL/M-CSF-induced osteoclastogenesis in C57BL/6J mouse Bone marrow macrophage cells assessed as increase in area of osteoclasts at 0.1 uM compound for every 2 days and measured after 7 days by TRAP staining based light microscopic method. The data set is classed as functional, cell-based.
Data set [5] deals with BMDM. In words: Effect on RANKL/M-CSF-induced osteoclastogenesis in C57BL/6J mouse Bone marrow macrophage cells assessed as increase in number of osteoclasts at 1 uM compound for every 2 days and measured after 7 days by TRAP staining based light microscopic method. The format is functional, cell-based.
For data set [6], the system named is BMDM. In words: Inhibition of RANKL/M-CSF-induced osteoclastogenesis in C57BL/6J mouse Bone marrow macrophage cells assessed as decrease in number of osteoclasts at 0.1 to 1 uM compound for every 2 days and measured after 7 days by TRAP staining based light microscopic method. The format is functional, cell-based.
For data set [7], the system named is BMDM. In words: Inhibition of RANKL/M-CSF-induced osteoclastogenesis in C57BL/6J mouse Bone marrow macrophage cells assessed as decrease in area of osteoclasts at 0.1 to 1 uM compound for every 2 days and measured after 7 days by TRAP staining based light microscopic method. The format is functional, cell-based.

On to `CO[C@@H]1[C@H](O)CC[C@]2(O)C[S+]([O-])[C@@H](CC=C(C)C)[C@](C)(O)[C@@]12O` (some centres undefined), for which, in the data set with BMDM [1], the Activity entry was “Non-Toxic”.

Turning to `CC/C=C\[C@H](O)[C@H](O)C1=C(C)C(=O)[C@]2(O1)C(=O)N[C@@](OC)(C(=O)c1ccccc1)[C@@H]2O` [PSEUROTIN A], the Activity result in the data set with BMDM [1] is reported as “Non-Toxic”. Besides, the result in the data set with BMDM [2] was Active.

`C=C1CCC2(O)CC1C2(C)[C@H](O)CC=C(C)C` (some centres undefined): in the data set with BMDM [1], the Activity result is recorded as “Non-Toxic”.

For `C=C1CC[C@@]2(O)C[C@@H]1[C@](C)(O)C(=O)[C@H]2C=C(C)C`, the Activity result in the data set with BMDM [1] is listed as “Non-Toxic”.

Regarding `CO[C@@H]1C(=O)CC[C@]2(O)CO[C@@H](CC=C(C)C)[C@](C)(O)[C@@]12O`, in the data set with BMDM [1], the Activity result is on record as “Non-Toxic”. The result with BMDM [3] and with BMDM [4] was Active.

Turning to `C=C1CC[C@@]2(O)C[C@@H]1[C@@](C)(O)C(=O)[C@H]2C=C(C)C`, the Activity entry with BMDM [1] is given as “Non-Toxic”. Moreover, the outcome with BMDM [3] and with BMDM [4] was Active.

In the case of `CC[C@@H]1O[C@]2(C[C@H](O)C1(C)C)OC(=O)C[C@@H]2NC(C)=O`, the Activity entry with BMDM [1] is “Non-Toxic”.

Take `CC(C)=CC[C@H]1O[C@]1(C)[C@]1(CO)OC(=O)CC[C@]1(O)CCl`: the Activity entry in the data set with BMDM [1] is “Non-Toxic”. In the data set with BMDM [5], the outcome was Active.

Consider `CO[C@@H]1C(=O)CC[C@]2(O)C[S+]([O-])[C@@H](CC=C(C)C)[C@](C)(O)[C@@]12O` (some centres undefined), for which the Activity result in the data set with BMDM [1] is “Non-Toxic”.

As to `CO[C@@H]1C(=O)CC[C@](O)(CCl)[C@@]1(O)[C@@]1(C)O[C@@H]1CC=C(C)C`, in the data set with BMDM [1], the Activity result was “Non-Toxic”. The inhibition result in the data set on BMDM [6] and in the data set on BMDM [7] was “Active” throughout.

For the compound `CO[C@@H]1C(=O)CC[C@]2(CO2)[C@@]1(O)[C@@]1(C)O[C@@H]1CC=C(C)C` [OVALICIN], the Activity result in the data set with BMDM [1] was “Non-Toxic”.
